According to paper PMC10092844, “Inhibition profile of trifludimoxazin towards PPO2 target site mutations” (Pest Management Science, 2022):
Where a chain is given by its changes, count along the chain named.

Columns and labels:
PPO2 R128A ΔG210 = biological target: T1, PPO2 R128A ΔG210 (Amaranthus tuberculatus, UniProt Q0NZW9, DEL210/R128A); assay: biochemical; type: biochemical
T1 sequence (Q0NZW9 with tags, fused parts or gaps R128A/DEL210): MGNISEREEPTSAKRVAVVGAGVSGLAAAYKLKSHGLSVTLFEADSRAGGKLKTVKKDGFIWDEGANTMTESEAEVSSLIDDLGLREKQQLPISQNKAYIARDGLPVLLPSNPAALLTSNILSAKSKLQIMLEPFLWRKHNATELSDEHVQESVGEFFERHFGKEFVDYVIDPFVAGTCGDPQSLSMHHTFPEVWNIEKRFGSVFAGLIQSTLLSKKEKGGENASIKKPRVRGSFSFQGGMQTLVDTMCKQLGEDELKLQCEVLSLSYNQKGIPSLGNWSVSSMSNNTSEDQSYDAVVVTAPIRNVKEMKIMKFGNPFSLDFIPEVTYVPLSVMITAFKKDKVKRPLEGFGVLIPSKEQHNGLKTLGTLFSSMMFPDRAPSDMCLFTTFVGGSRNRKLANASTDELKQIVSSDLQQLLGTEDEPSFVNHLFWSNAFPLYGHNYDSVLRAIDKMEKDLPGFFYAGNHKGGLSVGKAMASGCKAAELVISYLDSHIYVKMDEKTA

PPO2 R128H ΔG210 = biological target: T2, PPO2 R128H ΔG210 (Amaranthus tuberculatus, UniProt Q0NZW9, DEL210/R128H); assay: biochemical; type: biochemical
T2 sequence (Q0NZW9 with tags, fused parts or gaps R128H/DEL210): T1 sequence (Q0NZW9 with tags, fused parts or gaps R128A/DEL210) with A98H

PPO2 R128Q ΔG210 = biological target: T3, PPO2 R128Q ΔG210 (Amaranthus tuberculatus, UniProt Q0NZW9, DEL210-210/R128Q); assay: biochemical; type: biochemical
T3 sequence (Q0NZW9 with tags, fused parts or gaps R128Q/DEL210-210): T1 sequence (Q0NZW9 with tags, fused parts or gaps R128A/DEL210) with A98Q

[1] = biological target: T4, PPO2 R128E ΔG210 in Escherichia coli hemG (Amaranthus tuberculatus, UniProt Q0NZW9, DEL210/R128E, cells depend on it); type: cell-based; details: read-out: IC50 (E. coli hemG growth)
T4 sequence (Q0NZW9 with tags, fused parts or gaps R128E/DEL210): T1 sequence (Q0NZW9 with tags, fused parts or gaps R128A/DEL210) with A98E

[2] = biological target: T5, PPO2 R128Q ΔG210 in Escherichia coli hemG (Amaranthus tuberculatus, UniProt Q0NZW9, DEL210-210/R128Q, cells depend on it); type: cell-based; details: read-out: IC50 (E. coli hemG growth)
T5 sequence (Q0NZW9 with tags, fused parts or gaps R128Q/DEL210-210): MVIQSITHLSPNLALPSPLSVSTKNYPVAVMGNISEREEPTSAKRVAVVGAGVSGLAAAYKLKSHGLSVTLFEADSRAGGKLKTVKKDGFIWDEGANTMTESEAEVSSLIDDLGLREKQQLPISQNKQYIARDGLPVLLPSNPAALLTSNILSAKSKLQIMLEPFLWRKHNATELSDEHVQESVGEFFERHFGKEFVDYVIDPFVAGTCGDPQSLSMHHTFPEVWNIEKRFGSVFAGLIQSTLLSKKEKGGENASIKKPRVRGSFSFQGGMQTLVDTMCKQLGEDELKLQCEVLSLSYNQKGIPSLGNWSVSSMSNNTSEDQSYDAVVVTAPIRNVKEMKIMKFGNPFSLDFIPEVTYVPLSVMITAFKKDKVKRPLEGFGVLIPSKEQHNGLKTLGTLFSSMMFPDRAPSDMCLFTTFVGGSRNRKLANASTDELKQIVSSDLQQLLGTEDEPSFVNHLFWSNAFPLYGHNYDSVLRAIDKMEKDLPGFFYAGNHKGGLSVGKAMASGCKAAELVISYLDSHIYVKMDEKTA

With `CS(=O)(=O)NC(=O)c1cc(Oc2ccc(C(F)(F)F)cc2Cl)ccc1[N+](=O)[O-]` [Fomesafen, fomesafen] the IC50 (PPO2 R128A ΔG210) was > 10000 nM, the IC50 (PPO2 R128H ΔG210) was > 10000 nM and the IC50 (PPO2 R128Q ΔG210) was > 10000 nM.
Work on `CCOC(=O)C(C)OC(=O)c1cc(Oc2ccc(C(F)(F)F)cc2Cl)ccc1[N+](=O)[O-]` (centres unmarked) [Lactofen, lactofen] yielded an IC50 (PPO2 R128H ΔG210) of 1590 nM, an IC50 (PPO2 R128Q ΔG210) of 1750 nM and an IC50 [1] of 2890 nM. For the same molecule, the IC50 [2] was > 10000 nM.
In the case of `CC(C)N(C)S(=O)(=O)NC(=O)c1cc(-n2c(=O)cc(C(F)(F)F)n(C)c2=O)c(F)cc1Cl` [Saflufenacil, saflufenacil], the IC50 (PPO2 R128A ΔG210) is reported as > 10000 nM, the IC50 (PPO2 R128H ΔG210) is reported as > 10000 nM and the IC50 (PPO2 R128Q ΔG210) is reported as > 10000 nM. The IC50 [1] was > 10000 nM and the IC50 [2] was > 10000 nM.
In the case of `C#CCN1C(=O)C(F)(F)Oc2cc(F)c(-n3c(=O)n(C)c(=S)n(C)c3=O)cc21` [Trifludimoxazin, trifludimoxazin], the IC50 (PPO2 R128A ΔG210) is reported as 33 nM, the Resistance factor (PPO2 R128A ΔG210) is reported as 135 and the IC50 (PPO2 R128H ΔG210) is reported as 30.2 nM. It also gave a Resistance factor (PPO2 R128H ΔG210) of 123, an IC50 (PPO2 R128Q ΔG210) of 14.5 nM and a Resistance factor (PPO2 R128Q ΔG210) of 59. The IC50 [1] was 9.87 nM and the IC50 [2] was 9.86 nM.
